Results taken from patent US20250152623A1, “Compositions and kits for use in wound healing, tissue regeneration and/or bone regeneration” (priority 2022, published 2025).
Like-named read-outs stand apart in the source and are kept apart here.

What was measured:
[1] = tested on: chorioallantoic membrane (CAM); type: in vivo
Experimental: (§1) To investigate the cytotoxicity of calcium peroxide, hyaluronic acid, and a combination thereof on cells, the substances were given to human primary fibroblasts, osteoblasts, and human umbilical vein endothelial cells (HUVEC) in vitro and compared to untreated cells and a dead control. For this purpose, cytotoxicity tests were performed according to ISO 10993-5 by measuring the cell viability quantitatively and […]. Additionally, biocompatibility tests were performed in the chorioallantoic membrane assay (CAM assay) in fertilized hen's eggs. All tests were repeated at least three times independently. In all tests 30 mg/mL hyaluronic acid and 0.256 mg/mL CaO2 were used. According to ISO 10993-5, cytotoxicity is defined by more than 30% reduction of the viable cell number by the substance.
Fertilized white Leghorn chicken eggs (LSL Rhein-Main GmbH, Dieburg, Germany) were incubated at 38° C. with constant humidity of 55 rH in an incubator (Type 3000 digital and fully automatic, Siepmann GmbH, Herdecke, Germany). For the first three days, eggs were placed horizontally on one side to ensure that the CAM would detach from the upwards pointing eggshell. On the embryonic development day (EDD) 3, eggs were prepared by removing 5-6 mL of the albumen in order to enlarge the space between eggshell and CAM. A small window of 3×2 cm was cut into the upwards pointing part of the eggshell. The window was covered with Parafilm® (Sigma-Aldrich, St. Louis, MO, USA) to prevent evaporation. On EDD-8, Gelaspon Strips (Bausch & Lomb Inc.; New York, USA) were cut in slices of 1×0.5×2 mm. 20 μl of each substance (512 mg/L CaO2, 10 mg/mL sodium hyaluronate, combination thereof) were added to the sponge. 20 μl of water was used as control. The further assessment of potential tissue adverse events was performed blinded. After 3 h, on EDD-10, and EDD-12, pictures were taken with a digital intravital fluorescence microscope (Olympus BXFM, Olympus Deutschland GmbH, Hamburg, Germany) at a 100-fold magnification using the cellSens Dimension software package.

[2] = tested on: human primary fibroblasts obtained from human oral mucosa; type: cell-based; details: 0.256 mg/mL calcium peroxide as single substance; cytotoxicity = more than 30% reduction (ISO 10993-5); FIG. 1
Experimental: as §1
Fibroblasts were obtained from human oral mucosa. Tissue samples were cut into small pieces of approximately 2×2 mm with a sterile disposable scalpel. […]
Cells were seeded into a 24-well-plate and they were given time to adhere overnight. […] Fluorescence was measured on a Fluorescence Microplate Reader (Fluoroskan Ascent Microplate reader, ThermoFisher Scientific, Waltham, MA, USA). Results were given as relative fluorescence using a 538 nm excitation filter and a 600 nm emission filter, normalized to untreated control.

[3] = tested on: human primary osteoblasts; type: cell-based; details: 30 mg/mL hyaluronic acid, 0.256 mg/mL CaO2; FIG. 2
Experimental: as §1
Primary human osteoblasts were isolated according to the following protocol. Human bone specimens were obtained during hip or knee joint replacement surgeries. […]
Cells were seeded into a 24-well-plate and they were given time to adhere overnight. […] Fluorescence was measured on a Fluorescence Microplate Reader (Fluoroskan Ascent Microplate reader, ThermoFisher Scientific, Waltham, MA, USA). […]

[4] = tested on: planktonic Streptococcus oralis ATCC 9811; experiment: Planktonic bacterial growth and metabolic activity of S. oralis; type: cell-based; details: for optical density at 600 nm (growth) compared to the control: 24 h anaerobic, FIG. 5 upper left
Experimental: According to FIG. 5, different concentrations of calcium peroxide were applied to mature biofilms in combination with hyaluronic acid. Calcium peroxide was added to planktonic bacterial strains S. oralis and P. gingivalis in concentrations ranging from 0 mg/L (control) to 500 mg/L with hyaluronic acid being present in a concentration of 11.550 mg/L. Shown in each case are the optical density at 600 nm, a parameter for the growth of a bacterial culture, and the relative metabolic activity. […] The autoclaved calcium peroxide (CaO2) (Sigma Aldrich, St. Louis, MO, US), ZnO2 and/or MgO2 was dissolved in sterile filtered, deionized, and autoclaved water. By serial dilutions with water (for planktonic experiments) or BHI/VitK (for biofilm experiments) the solutions were adjusted to concentration of 3.9-500 mg/l CaO2 for bacterial experiments. All solutions were freshly prepared for each experiment. Streptococcus oralis ATCC 9811 was obtained from the American Type Culture Collection (ATCC) and Porphyromonas gingivalis DSM 20709 derived from the German Collection of Microorganisms and Cell Cultures (DSMZ). The strains were grown under anaerobic conditions (80% N2, 10% H2, 10% CO2) at 37° C. for 24 h in 50 mL screw cap tube (Sarstedt, Nümbrecht, Germany) with Brain Heart Infusion Medium (BHI; Oxoid, Wesel, Germany) containing 10 μg/mL vitamin K (Roth, Karlsruhe, Germany; BHI/VitK) to obtain 24-hour-old precultures for further processing. In order to determine the influence of CaO2 on planktonic S. oralis and P. gingivalis, the 24-hour-old precultures were pelleted by centrifugation at 4,000 g for 15 min at 4° C., the supernatant was discarded and the bacterial pellets were resuspended in fresh double concentrated BHI/VitK medium (2×BH/VitK). The optical density was measured at 600 nm (OD600; BioPhotometer, Eppendorf, Hamburg, Germany), adjusted to 0.2 and dilute 1:10 with 2×BHI/VitK to 0.02. The freshly prepared CaO2 solution was mixed equally with the bacterial cultures (OD600=0.02) to a final OD600=0.01 and following final concentrations for CaO2: As positive controls, bacterial cultures (OD600=0.02) were mixed 1:2 with sterile filtered, deionized and autoclaved water (growth controls). […] To evaluate the effect of CaO2 on the growth of planktonic S. oralis and P. gingivalis cultures, the 24-h-old bacterial cultures were mixed and the optical density (OD600) was measured with a plate reader (Tecan, Mennedorf, Switzerland). Metabolic activity was measured using the BacTiter-Glo™ Microbial Viability Assay (Promega, Mannheim, Germany). […] After 5 min of incubation at room temperature under light protection, the samples were mixed again and the amount of adenosine triphosphate (ATP) was determined by measuring the luminescence using the plate reader. […]

[5] = tested on: planktonic Porphyromonas gingivalis DSM 20709; experiment: Planktonic bacterial growth and metabolic activity of P. gingivalis; type: cell-based; details: for relative metabolic activity compared to the control: FIG. 5 lower right; for optical density at 600 nm (growth) compared to the control: FIG. 5 top right
Experimental: According to FIG. 5, different concentrations of calcium peroxide were applied to mature biofilms in combination with hyaluronic acid. Calcium peroxide was added to planktonic bacterial strains S. oralis and P. gingivalis in concentrations ranging from 0 mg/L (control) to 500 mg/L with hyaluronic acid being present in a concentration of 11.550 mg/L. Shown in each case are the optical density at 600 nm, a parameter for the growth of a bacterial culture, and the relative metabolic activity. […] The autoclaved calcium peroxide (CaO2) (Sigma Aldrich, St. Louis, MO, US), ZnO2 and/or MgO2 was dissolved in sterile filtered, deionized, and autoclaved water. By serial dilutions with water (for planktonic experiments) or BHI/VitK (for biofilm experiments) the solutions were adjusted to concentration of 3.9-500 mg/l CaO2 for bacterial experiments. All solutions were freshly prepared for each experiment. Streptococcus oralis ATCC 9811 was obtained from the American Type Culture Collection (ATCC) and Porphyromonas gingivalis DSM 20709 derived from the German Collection of Microorganisms and Cell Cultures (DSMZ). The strains were grown under anaerobic conditions (80% N2, 10% H2, 10% CO2) at 37° C. for 24 h in 50 mL screw cap tube (Sarstedt, Nümbrecht, Germany) with Brain Heart Infusion Medium (BHI; Oxoid, Wesel, Germany) containing 10 μg/mL vitamin K (Roth, Karlsruhe, Germany; BHI/VitK) to obtain 24-hour-old precultures for further processing. In order to determine the influence of CaO2 on planktonic S. oralis and P. gingivalis, the 24-hour-old precultures were pelleted by centrifugation at 4,000 g for 15 min at 4° C., the supernatant was discarded and the bacterial pellets were resuspended in fresh double concentrated BHI/VitK medium (2×BH/VitK). The optical density was measured at 600 nm (OD600; BioPhotometer, Eppendorf, Hamburg, Germany), adjusted to 0.2 and dilute 1:10 with 2×BHI/VitK to 0.02. The freshly prepared CaO2 solution was mixed equally with the bacterial cultures (OD600=0.02) to a final OD600=0.01 and following final concentrations for CaO2: As positive controls, bacterial cultures (OD600=0.02) were mixed 1:2 with sterile filtered, deionized and autoclaved water (growth controls). As negative controls, 2×BHI/VitK was mixed equally with sterile filtered, deionized and autoclaved water (medium control) and the CaO2 solution was mixed 1:2 with 2×BHI/VitK (CaO2 solution control). Finally, 150 μL of each suspension was transferred into each well of a 96-well plate and cultivated for 24 h at 37° C. rotating (180 rpm) under anaerobic conditions (Anaerobic Jar and AnaeroGen; Oxoid, Wesel, Germany). All experiments were carried out in three biological and two technical replicates. To evaluate the effect of CaO2 on the growth of planktonic S. oralis and P. gingivalis cultures, the 24-h-old bacterial cultures were mixed and the optical density (OD600) was measured with a plate reader (Tecan, Mennedorf, Switzerland). Metabolic activity was measured using the BacTiter-Glo™ Microbial Viability Assay (Promega, Mannheim, Germany). 50 μL BacTiter-Glo™ reagent and 50 μL of the well-mixed bacterial cultures were added to opaque 96-well plates. After 5 min of incubation at room temperature under light protection, the samples were mixed again and the amount of adenosine triphosphate (ATP) was determined by measuring the luminescence using the plate reader. All results were normalized to the medium or CaO2 solution controls.

Compound | adverse tissue reactions on the CAM ([1]; in vivo) | cytotoxic effect on the CAM ([1]; in vivo) | reduction in cell viability [2] | viability after treatment in comparison to untreated osteoblasts (=100% cell viability) [3] | adverse tissue reactions on the CAM ([1]; FIG. 4) | angiogenesis (area of the sponge covered by blood vessels) compared to untreated CAM tissue ([1]; FIG. 4A) | cytotoxic effect on the CAM ([1]; substance applied on sponge, FIGS. 4A and 4B) | growth inhibition of S. oralis ([4]; calcium peroxide 125 mg/L) | optical density at 600 nm (growth) compared to the control ([4]; calcium peroxide 250 mg/L) | optical density at 600 nm (growth) compared to the control ([4]; calcium peroxide 500 mg/L) | relative metabolic activity compared to the control ([4]; calcium peroxide up to 500 mg/L, FIG. 5 lower left) | relative metabolic activity compared to the control ([5]; calcium peroxide 125 mg/L) | optical density at 600 nm (growth) compared to the control ([5]; calcium peroxide 125 mg/L) | relative metabolic activity compared to the control ([5]; calcium peroxide 250 mg/L) | optical density at 600 nm (growth) compared to the control ([5]; calcium peroxide 250 mg/L) | relative metabolic activity compared to the control ([5]; calcium peroxide 500 mg/L) | optical density at 600 nm (growth) compared to the control ([5]; calcium peroxide 500 mg/L)
hyaluronic acid | no adverse tissue reactions | none of the tested substances had a cytotoxic effect | – | – | – | – | – | – | – | – | – | – | – | – | – | – | –
[Ca+2].[O-][O-] [calcium peroxide] | – | – | more than 30% | hardly showed a reduction | no adverse tissue reactions | not significantly different | none of the tested substances had a cytotoxic effect | only very slightly inhibited | decreased significantly | decreased significantly | unchanged | significantly decreased | significantly decreased | significantly decreased | significantly decreased | significantly decreased | significantly decreased
